# From patent publication US10889812B2, “Short non-coding protein regulatory RNAs (sprRNAs) and methods of use” (University of Maryland, Baltimore, priority 2014, dated 2021)
# Tested on: LAMC2
# Experiment: LAMC2 expression by real time RT-PCR in HBE4 cells
# Type: cell-based, human
# From the text: FIG. 11. Expression of piR-L-163 in NSCLC and HBE cell lines measured by real time RT-PCR. (a) piR-L-163 expression levels in individual cell lines. (b) piR-L-163 express ion levels in HBE, ADC and SCC as groups. All the values are averages of four independent replicates, error bars represent mean s.d., and * indicates p<0.01 by Student's t-test. (c) LAMC2 express ion levels in HBE4 cells measured by real time RT-PCR in the conditions as labeled. Values are averages of three independent replicates, error bars represent mean s.d., and ** indicates p<0.05 by Student's t-test.
# We then wanted to determine whether piR-L-163 (SEQ ID NO:282) plays a functional role in human bronchial epithelial cells. We treated HBE4 cells as well as primary normal human bronchial epithelial (NHBE) cells with piR-L-163 complementary DNA oligonucleotides (Ant-163) (SEQ ID NO:496) or RNA oligonucleotides (Ant-163R) (SEQ ID NO:497) in the experiment. […] Cell cycle distributions were measured every 2 hrs.
substance,measurement,value
"Ant-163R: piR-L-163 complementary RNA oligonucleotides, SEQ ID NO:497 (antisense GGUCAGAGAAUCAAAGUAACAUCAUGAUAU; listed as RNA, chemistry not given here)",expression levels of LAMC2,reduced expression levels of LAMC2
